Data reported in EP0567613B1, “COMPOSITIONS FOR THERAPY AND PREVENTION OF CANCER” (The Government of the United States of America, as …, priority 1991, dated 1993).
Read-outs that look alike come from different tables or passages of the source.

Legend:
Prostatic PC3 Cells = test: Tumorigenicity of pretreated cells in nude mice; type: in vivo, athymic nude mice; details: cells pretreated 1 week at 0.8 mg/ml, 8 weeks later
Excerpt: PC3 cells were pretreated for 1 week in culture and then injected (2 x 10^5 cells/animal) s.c. into 4-5 week-old female athymic nude mice. […] The data in Table 4 are a summary of two independent experiments.

PC3 cells = test: Growth on matrigel / in vitro invasion; type: cell-based, human; details: 800 µg/ml for 4 days, replated on matrigel, 8 days after plating
Method: Pictures of controls, taken after 1 and 8 days (A and B, respectively), show the characteristic growth pattern of untreated cells, i.e., formation of net-like structures composed of actively replicating cells, which eventually degraded the matrigel and formed monolayers on the plastic surface beneath.
Results scored 6-24 hours later.
It is known that PC3 cells are invasive in vitro and metastatic in recipient athymic mice. [Albini, A. et al. A rapid in vitro assay for quantitating the invasive potential of tumor cells. Cancer Res. 47:3239-3245 (1987)]. The invasiveness of PC3 cells which is indicative of their malignant phenotype can be assessed by their ability to degrade and cross tissue barriers such as matrigel, a reconstituted basement membrane. […] In Fig. 7, pictures of controls taken after 1 and 8 days, A and B, respectively, shown the characteristic growth pattern of untreated cells, i.e., formation of net-like structures composed of actively replicating cells which eventually degraded the matrigel and formed monolayers on the plastic surface beneath. […] The formation of small noninvasive colonies on top of the matrigel is indicative of loss of malignant properties following treatment. Results of the in vitro invasion assays correlate highly with the biological behavior of cells in vivo.

[1] = cited from earlier work
10T1/2 cells = test: Neoplastic foci formation in culture; details: 800-1600 µg/ml for seven weeks
Excerpt: […] The cells were then subcultured in the absence of the nucleoside analog for an additional seven weeks. […] For the tumorigenicity assay, 4-5 week-old female athymic nude mice were inoculated s.c. with 1 x 10^6 cells and observed for tumor growth at the site of injection.

O=C([O-])Cc1ccccc1.[Na+] [NaPA, sodium phenylacetate]
Incidence (Prostatic PC3 Cells; 2 x 10^5 cells/animal s.c.): 1/7
Diameter (Prostatic PC3 Cells): 2 mm ± S.D.
Weight (Prostatic PC3 Cells): 50 mg
degradation of the matrigel barrier (PC3 cells): failed to degrade the matrigel barrier
plasma levels ([1]; children with urea cycle disorders, infusion 300-500 mg/kg/day): approximately 800 µg/ml
plasma levels ([1]; humans, intravenous infusion 250-500 mg/kg/day): 600 to 800 µg/mL
neoplastic foci in vitro and tumors in recipient mice (10T1/2 cells): forming neither neoplastic foci in vitro nor tumors in recipient mice
